“And” between values parts separate entries of the source, which are not always exact repeats. Identical values can stand only once. Inconclusive results and toxic doses are left out. Cut-off read from the data, not from the text of the source: active = T/C of 150% or more; inactive = T/C below 125%.
Test system: L1210 leukemia ip in BDF1 mice, survival T/C
Experiment: NCI In Vivo Anticancer Drug Screen. Data for tumor model L1210 Leukemia (intraperitoneal) in B6D2F1 (BDF1) mice
Conditions: endpoint: mean survival time, higher = longer survival
Procedure, shortened: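 Ratio derived from survival: compound-dosed mice over vehicle-dosed mice, all bearing a transplantable tumor.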

[1] = dose: 100.0 mg/kg/injection, schedule: Q01DX009 (ip), vehicle: saline with Tween-80
[2] = dose: 200.0 mg/kg/injection, schedule: Q01DX009 (ip), vehicle: saline with Tween-80
[3] = dose: 100.0 mg/kg/injection, schedule: Q01DX009 (ip), vehicle: Klucel (hydroxypropylcellulose) (HPC)
[4] = dose: 100.0 mg/kg/injection, schedule: Q04DX003 (ip), vehicle: Klucel (hydroxypropylcellulose) (HPC)
[5] = dose: 200.0 mg/kg/injection, schedule: Q01DX009 (ip), vehicle: Klucel (hydroxypropylcellulose) (HPC)
[6] = dose: 200.0 mg/kg/injection, schedule: Q04DX003 (ip), vehicle: Klucel (hydroxypropylcellulose) (HPC)
[7] = dose: 400.0 mg/kg/injection, schedule: Q04DX003 (ip), vehicle: Klucel (hydroxypropylcellulose) (HPC)
[8] = dose: 100.0 mg/kg/injection, schedule: Q01DX001 (ip), vehicle: Klucel (hydroxypropylcellulose) (HPC)
[9] = dose: 200.0 mg/kg/injection, schedule: Q01DX001 (ip), vehicle: Klucel (hydroxypropylcellulose) (HPC)
[10] = dose: 400.0 mg/kg/injection, schedule: Q01DX001 (ip), vehicle: Klucel (hydroxypropylcellulose) (HPC)

Measured: T/C

CCCC(C)CC1CCCCC1=O (stereo not given)
inactive: dose: 75.0 mg/kg/injection, schedule: Q04DX003 (ip), vehicle: saline 97 % of control | dose: 150.0 mg/kg/injection, schedule: Q04DX003 (ip), vehicle: saline 96 % of control | dose: 300.0 mg/kg/injection, schedule: Q04DX003 (ip), vehicle: saline 103 % of control

O=C(Nc1ccccc1Cl)Oc1ccc(Cl)cc1Cc1ccccc1
inactive: [1] 91 % of control | dose: 100.0 mg/kg/injection, schedule: Q04DX002 (ip), vehicle: saline with Tween-80 100 % of control | [2] 90 % of control | dose: 200.0 mg/kg/injection, schedule: Q04DX002 (ip), vehicle: saline with Tween-80 91 % of control | dose: 400.0 mg/kg/injection, schedule: Q04DX002 (ip), vehicle: saline with Tween-80 91 % of control

Cc1ccc(-c2nn3c(-c4ccccc4)nnc3o2)cc1
inactive: [1] 97 % of control | [2] 94 % of control | dose: 400.0 mg/kg/injection, schedule: Q01DX009 (ip), vehicle: saline with Tween-80 102 % of control

Cc1csc2[nH]c(=O)[nH]c(=O)c12
inactive: dose: 100.0 mg/kg/injection, schedule: Q01DX009 (ip), vehicle: water 104 % of control | dose: 100.0 mg/kg/injection, schedule: Q04DX003 (ip), vehicle: water 112 % of control | dose: 200.0 mg/kg/injection, schedule: Q04DX003 (ip), vehicle: water 115 % of control | dose: 400.0 mg/kg/injection, schedule: Q01DX009 (ip), vehicle: water 86 % of control | dose: 400.0 mg/kg/injection, schedule: Q04DX003 (ip), vehicle: water 118 % of control

CCSC(SCC)C(O)C(O)C(O)C(O)CO (stereo not given)
inactive: [3] 101 % of control and 98 % of control | [4] 101 % of control and 92 % of control | dose: 100.0 mg/kg/injection, schedule: Q04DX003 (ip), vehicle: saline 101 % of control | [5] 106 % of control and 97 % of control | [6] 101 % of control and 95 % of control | dose: 200.0 mg/kg/injection, schedule: Q04DX003 (ip), vehicle: saline 93 % of control | dose: 400.0 mg/kg/injection, schedule: Q01DX009 (ip), vehicle: Klucel (hydroxypropylcellulose) (HPC) 114 % of control and 97 % of control | [7] 101 % of control and 92 % of control | dose: 400.0 mg/kg/injection, schedule: Q04DX003 (ip), vehicle: saline 92 % of control

O=C(O)C1C2C=CC(C2)C1C(=O)O.[Cu+2] (stereo not given)
inactive: dose: 3.12 mg/kg/injection, schedule: Q01DX009 (ip), vehicle: Klucel (hydroxypropylcellulose) (HPC) 95 % of control | dose: 6.25 mg/kg/injection, schedule: Q01DX009 (ip), vehicle: Klucel (hydroxypropylcellulose) (HPC) 96 % of control | dose: 12.5 mg/kg/injection, schedule: Q01DX009 (ip), vehicle: Klucel (hydroxypropylcellulose) (HPC) 101 % of control | dose: 12.5 mg/kg/injection, schedule: Q04DX003 (ip), vehicle: Klucel (hydroxypropylcellulose) (HPC) 103 % of control | dose: 18.0 mg/kg/injection, schedule: Q01DX009 (ip), vehicle: Klucel (hydroxypropylcellulose) (HPC) 101 % of control | dose: 28.0 mg/kg/injection, schedule: Q01DX009 (ip), vehicle: Klucel (hydroxypropylcellulose) (HPC) 93 % of control

CC(C)CCNc1ncnc2nc[nH]c12
inactive: dose: 75.0 mg/kg/injection, schedule: Q01DX001 (ip), vehicle: saline 90 % of control | dose: 150.0 mg/kg/injection, schedule: Q01DX001 (ip), vehicle: saline 92 % of control

CCCCCCCCCCCCCCCCSC1CC(=O)N(c2ccc3c(c2)Cc2ccccc2-3)C1=O (stereo not given)
inactive: [4] 96 % of control | [6] 96 % of control | [7] 100 % of control

CN(C)C(=S)SCC(N)=O
inactive: [8] 103 % of control | [9] 100 % of control | [10] 103 % of control

COc1ccc(OC)c2c1CCCC2
inactive: [3] 106 % of control | [5] 117 % of control

CC(=O)Nc1cc(C)ccc1C
inactive: dose: 50.0 mg/kg/injection, schedule: Q01DX001 (ip), vehicle: Klucel (hydroxypropylcellulose) (HPC) 101 % of control | [8] 91 % of control and 101 % of control | [9] 94 % of control and 104 % of control | [10] 94 % of control

Reference: PubChem BioAssay AID248 (DTP/NCI, 2004)
